The text below walks through data of US20100311714A1, “1H-IMIDAZO[4,5-c]QUINOLINONE COMPOUNDS” (priority 2009, published 2010).

In the test the test system is PKB Ser473 phosphorylation in Rat1-myr-HA-p110 alpha cells. Nature of the test: Reverse protein array, PKB Ser473 phosphorylation in Rat1-myr-HA-p110 alpha cells. The test is classed as cell-based. The settings on record: Rattus norvegicus, 0.5 h, 30 minutes compound incubation, read-out: p-PKB/IC50_alpha.

In the case of `CNc1ncc(-c2ccc3ncc4c(c3c2)n(-c2ccc(N3CC(F)(F)C3)nc2C)c(=O)n4C)cn1` [Example 24.1, 1-[6-(3,3-Difluoro-azetidin-1-yl)-2-methyl-pyridin-3-yl]-3-methyl-8-(2-methylamino-pyrimidin-5-yl)-1,3-dihydro-imidazo[4,5-c]quinolin-2-one], the IC50 was determined as 15.3 nM.
The same measure for `CCOc1cc(-c2ccc3ncc4c(c3c2)n(-c2ccc(N3CCCC3)nc2C)c(=O)n4C)cnc1COC` [Example 25.2, 8-(5-Ethoxy-6-methoxymethyl-pyridin-3-yl)-3-methyl-1-(2-methyl-6-pyrrolidin-1-yl-pyridin-3-yl)-1,3-dihydro-imidazo[4,5-c]quinolin-2-one]: 48 nM; for `Cc1nc(N2CCCC2)ccc1-n1c(=O)n(C)c2cnc3ccc(-c4cncc(C(C)(C)O)c4)cc3c21` [Example 25.3, 8-[5-(1-Hydroxy-1-methyl-ethyl)-pyridin-3-yl]-3-methyl-1-(2-methyl-6-pyrrolidin-1-yl-pyridin-3-yl)-1,3-dihydro-imidazo[4,5-c]quinolin-2-one]: 13.9 nM; for `Cc1nc(N(C)CCO)ccc1-n1c(=O)n(C)c2cnc3ccc(-c4cnc(N)c(C(F)(F)F)c4)cc3c21` [Example 26.1, 8-(6-Amino-5-trifluoromethyl-pyridin-3-yl)-1-{6-[(2-hydroxy-ethyl)-methyl-amino]-2-methyl-pyridin-3-yl}-3-methyl-1,3-dihydro-imidazo[4,5-c]quinolin-2-one]: under 4.57 nM.
Consider `CNc1ncc(-c2ccc3ncc4c(c3c2)n(-c2ccc(N(C)CCO)nc2C)c(=O)n4C)cn1` [Example 26.2, 1-{6-[(2-Hydroxy-ethyl)-methyl-amino]-2-methyl-pyridin-3-yl}-3-methyl-8-(2-methylamino-pyrimidin-5-yl)-1,3-dihydro-imidazo[4,5-c]quinolin-2-one], for which the IC50 was determined as 5.1 nM.
With `CNc1ncc(-c2ccc3ncc4c(c3c2)n(-c2ccc(N3CCC(O)C3)nc2C)c(=O)n4C)cn1` (stereo not drawn) [Example 27.2, 1-[6-(3-Hydroxy-pyrrolidin-1-yl)-2-methyl-pyridin-3-yl]-3-methyl-8-(2-methylamino-pyrimidin-5-yl)-1,3-dihydro-imidazo[4,5-c]quinolin-2-one], the IC50 turned out to be 11.3 nM.
Take `COC1CCN(c2ccc(-n3c(=O)n(C)c4cnc5ccc(-c6cncc(C(C)(C)O)c6)cc5c43)c(C)n2)C1` (stereo not drawn) [Example 28.1, 8-[5-(1-Hydroxy-1-methyl-ethyl)-pyridin-3-yl]-1-[6-(3-methoxy-pyrrolidin-1-yl)-2-methyl-pyridin-3-yl]-3-methyl-1,3-dihydro-imidazo[4,5-c]quinolin-2-one]: the IC50 came to 22.7 nM.
For the molecule `CCNc1cc(-c2ccc3ncc4c(c3c2)n(-c2ccc(N3CC(O)C3)nc2C)c(=O)n4C)cnc1CO` [Example 29.2, 8-(5-Ethylamino-6-hydroxymethyl-pyridin-3-yl)-1-[6-(3-hydroxy-azetidin-1-yl)-2-methyl-pyridin-3-yl]-3-methyl-1,3-dihydro-imidazo[4,5-c]quinolin-2-one], the IC50 turned out to be 14 nM.
Regarding `CNc1ncc(-c2ccc3ncc4c(c3c2)n(-c2ccc(N3CC(O)C3)nc2C)c(=O)n4C)cc1F` [Example 29.3, 8-(5-Fluoro-6-methylamino-pyridin-3-yl)-1-[6-(3-hydroxy-azetidin-1-yl)-2-methyl-pyridin-3-yl]-3-methyl-1,3-dihydro-imidazo[4,5-c]quinolin-2-one], the IC50 amounted to 21.9 nM.
On to `CNc1ncc(-c2ccc3ncc4c(c3c2)n(-c2ccc(N3CC(O)C3)nc2C)c(=O)n4C)cc1C(F)(F)F` [Example 29.4, 1-[6-(3-Hydroxy-azetidin-1-yl)-2-methyl-pyridin-3-yl]-3-methyl-8-(6-methylamino-5-trifluoromethyl-pyridin-3-yl)-1,3-dihydro-imidazo[4,5-c]quinolin-2-one], for which the IC50 turned out to be 8 nM.
As to `COc1cc(-c2ccc3ncc4c(c3c2)n(-c2ccc(N3CC(O)C3)nc2C)c(=O)n4C)cnc1CO` [Example 29.5, 1-[6-(3-Hydroxy-azetidin-1-yl)-2-methyl-pyridin-3-yl]-8-(6-hydroxymethyl-5-methoxy-pyridin-3-yl)-3-methyl-1,3-dihydro-imidazo[4,5-c]quinolin-2-one], the IC50 was 197 nM.
Consider `COc1ncc(-c2ccc3ncc4c(c3c2)n(-c2ccc(N3CC(O)C3)nc2C)c(=O)n4C)c(OC)n1` [Example 29.6, 8-(2,4-Dimethoxy-pyrimidin-5-yl)-1-[6-(3-hydroxy-azetidin-1-yl)-2-methyl-pyridin-3-yl]-3-methyl-1,3-dihydro-imidazo[4,5-c]quinolin-2-one], for which the IC50 is 17 nM.
Take `CNc1ncc(-c2ccc3ncc4c(c3c2)n(-c2ccc(C(C)(C)O)nc2C)c(=O)n4C)cc1F` [Example 31.1, 8-(5-Fluoro-6-methylamino-pyridin-3-yl)-1-[6-(1-hydroxy-1-methyl-ethyl)-2-methyl-pyridin-3-yl]-3-methyl-1,3-dihydro-imidazo[4,5-c]quinolin-2-one]: the IC50 was determined as 14.6 nM.
`CNc1ncc(-c2ccc3ncc4c(c3c2)n(-c2ccc(N3CC[C@H](O)C3)nc2C)c(=O)n4C)cn1` [Example 32.1, 1-[6-((S)-3-Hydroxy-pyrrolidin-1-yl)-2-methyl-pyridin-3-yl]-3-methyl-8-(2-methylamino-pyrimidin-5-yl)-1,3-dihydro-imidazo[4,5-c]quinolin-2-one]: the IC50 was under 4.57 nM.
With `CNc1ncc(-c2ccc3ncc4c(c3c2)n(-c2ccc(N3CC[C@H](O)C3)nc2C)c(=O)n4C)cc1F` [Example 32.2, 8-(5-Fluoro-6-methylamino-pyridin-3-yl)-1-[6-((S)-3-hydroxy-pyrrolidin-1-yl)-2-methyl-pyridin-3-yl]-3-methyl-1,3-dihydro-imidazo[4,5-c]quinolin-2-one], the IC50 was 8.1 nM.
Turning to `COc1ncc(-c2ccc3ncc4c(c3c2)n(-c2ccc(N3CC[C@H](O)C3)nc2C)c(=O)n4C)c(OC)n1` [Example 32.3, 8-(2,4-Dimethoxy-pyrimidin-5-yl)-1-[6-((S)-3-hydroxy-pyrrolidin-1-yl)-2-methyl-pyridin-3-yl]-3-methyl-1,3-dihydro-imidazo[4,5-c]quinolin-2-one], the IC50 is 45 nM.
Then `CNc1ncc(-c2ccc3ncc4c(c3c2)n(-c2ccc(N3CC[C@H](O)C3)nc2C)c(=O)n4C)cc1C(F)(F)F` [Example 32.5, 1-[6-((S)-3-Hydroxy-pyrrolidin-1-yl)-2-methyl-pyridin-3-yl]-3-methyl-8-(6-methylamino-5-trifluoromethyl-pyridin-3-yl)-1,3-dihydro-imidazo[4,5-c]quinolin-2-one], with 10 nM; and `Cc1nc(N2CC[C@H](O)C2)ccc1-n1c(=O)n(C)c2cnc3ccc(-c4cncc(OC(C)C)c4)cc3c21` [Example 32.8, 1-[6-((S)-3-Hydroxy-pyrrolidin-1-yl)-2-methyl-pyridin-3-yl]-8-(5-isopropoxy-pyridin-3-yl)-3-methyl-1,3-dihydro-imidazo[4,5-c]quinolin-2-one], with 35.8 nM.
The same measure for `Cc1nc(C(F)(F)F)ccc1-n1c(=O)n(C)c2cnc3ccc(-c4cncc(C(C)(C)O)c4)cc3c21` [Example 33.1, 8-[5-(1-Hydroxy-1-methyl-ethyl)-pyridin-3-yl]-3-methyl-1-(2-methyl-6-trifluoromethyl-pyridin-3-yl)-1,3-dihydro-imidazo[4,5-c]quinolin-2-one]: 19 nM.
As to `CCNc1ncc(-c2ccc3ncc4c(c3c2)n(-c2ccc(N3CC[C@@H](O)C3)nc2C)c(=O)n4C)cc1C(F)(F)F` [Example 34.2, 8-(6-Ethylamino-5-trifluoromethyl-pyridin-3-yl)-1-[6-((R)-3-hydroxy-pyrrolidin-1-yl)-2-methyl-pyridin-3-yl]-3-methyl-1,3-dihydro-imidazo[4,5-c]quinolin-2-one], the IC50 was determined as 11.7 nM.
On to `CCNc1ncc(-c2ccc3ncc4c(c3c2)n(-c2ccc(N3CC[C@@H](O)C3)nc2C)c(=O)n4C)cc1COCC` [Example 34.4, 8-(5-Ethoxymethyl-6-ethylamino-pyridin-3-yl)-1-[6-((R)-3-hydroxy-pyrrolidin-1-yl)-2-methyl-pyridin-3-yl]-3-methyl-1,3-dihydro-imidazo[4,5-c]quinolin-2-one], for which the IC50 stood at 35 nM.
